Assays:
NIH3T3 cells = experiment: Intracellular uptake and release by CLSM in NIH3T3 cells; type: cell-based, Mouse; conditions: 10 μg/mL DOX equivalents, 30 min to 4 h
Description: (§1) A549 (cancer cells) and NIH3T3 (normal cells) cells were seeded at a density of 1.0×10^5 cells/well in an 8-well chamber of a Lab-Tek II chamber slide and preincubated for 24 h at 37° C. and 5% CO2. Serum-free DMEM containing free DOX and DOX-NPs at equivalent doses (10 μg/mL) was added to each well, followed by incubation for 30 min, 2 h and 4 h at 37° C. The cells were then rinsed with PBS, and fixed with 4% formaldehyde solution for 10 min. Cover glasses were then placed on glass slides. The cellular uptake and release behavior of DOX-encapsulated SS or thioester NPs were imaged by confocal laser scanning microscopy (CLSM) (Leica, England) at an excitation wavelength of 488 nm for DOX. Since DOX itself is fluorescent, it was used directly to investigate cellular uptake without additional fluorescent labeling in of the nanoparticles.

A549 cells [1] = experiment: Intracellular uptake and release by CLSM in A549 cells; type: cell-based, human; conditions: 10 μg/mL DOX equivalents
Description: as §1

A549 cells [2] = experiment: MTT cytotoxicity in A549 cells; type: cell-based, human; conditions: 24 h
Description: (§2) A549 and NIH3T3 cells (7500 cells/well) were seeded on 96-well plates and cultured in 200 μL of DMEM supplemented with 10% FBS, 1% antibiotics, and 1% L-glutamine for 24 h at 37° C. and 5% CO2. After incubation, various concentrations of DOX-encapsulated SS or thioester NPs and free DOX (1-50 μg/mL of DOX equivalents) dissolved in DMEM without supplements were added. After 24 h of incubation, cytotoxicity was determined using 3-[4,5-dimethylthiazol-2-yl]-[…] bromide dye (MTT dye, final concentration of 0.5 mg/mL) uptake at 540 nm on a microplate reader (Tecan group Ltd., Mannedorf, Switzerland).

HeLa cells [3] = experiment: Cellular uptake by CLSM in HeLa cells; type: cell-based
Description: To observe the cellular uptake, HeLa cells (cancer cells) were seeded at a density of 1.0×10^5 cells/well in an 8-well chamber of a Lab-Tek II chamber slide and preincubated for 24 h at 37° C. and 5% CO2. […] The cells were then rinsed with PBS, stained with 10 μM Draq5 and fixed with 4% formaldehyde solution for 10 min. Cover glasses were then placed on glass slides. The cellular uptake of free DOX and DOX-NPs was imaged by CLSM at an excitation wavelength of 488 nm for DOX. To quantify cellular uptake, HeLa cells (5×10^5 cells/well) in 0.5 mL were grown on a 24-well plate at 37° C. in a humidified atmosphere of 5% CO2 for 24 h. Serum-free DMEM containing free DOX and DOX-NPs at equivalent doses (25 μg/mL) was added to the cells which were subsequently incubated for 2 h. The cells were then washed three times with PBS, harvested by trypsinization and transferred into Fluorescence Activated Cell Sorter (FACS) tubes. All samples were analyzed by flow cytometry (FACSCalibur, BD Biosciences, San Jose, Calif.) to determine cellular internalization. Fluorescence measurements of intracellular DOX were performed in the FL2 channel.

HeLa cells [4] = experiment: MTT cytotoxicity in HeLa cells; type: cell-based; conditions: equal DOX concentrations
Description: as §2, with “HeLa cells” for “A549 and NIH3T3 cells”, “of the blank nanoparticles (0.2-1 mg/mL), DOX-NPs,” for “of DOX-encapsulated SS or thioester NPs”, “of incubation with free DOX and DOX-NPs, and 48 h with blank nanoparticles,” for “of incubation,”, “Ltd., Männedorf,” for “Ltd., Mannedorf,”

[5] = in vivo; cited from earlier work

Structure (SMILES) | Location of red DOX fluorescent signal (NIH3T3 cells) | Location of red DOX fluorescent signal (A549 cells [1]; 30 min) | Location of red DOX fluorescent signal (A549 cells [1]; 2 h and 4 h) | Decrease of cell viability (A549 cells [2]; 1-50 μg/mL DOX, dose-dependent) | Cytotoxicity relative to DOX-encapsulated thioester-NPs (A549 cells [2]; all DOX concentrations) | Red DOX fluorescent signal in cells (HeLa cells [3]; 2 h) | Cell morphology (HeLa cells [3]; 4 h) | Red DOX fluorescent signal in cells (HeLa cells [3]; 4 h) | Relative cytotoxicity (HeLa cells [4]) | Biodistribution of free dye [5]
COc1cccc2c1C(=O)c1c(O)c3c(c(O)c1C2=O)C[C@@](O)(C(=O)CO)C[C@@H]3O[C@H]1C[C@H](N)[C@H](O)[C@H](C)O1 [free DOX, doxorubicin] | red signal was observed in the cellular nuclei | entered the cellular nuclei | strong red signal in the cellular nuclei | 5-82% | significantly higher | red fluorescent signal was observed | cell shrinkage and blebbing | significant increases in the red signal | significantly higher cytotoxicity than DOX-encapsulated NPs | –
CCCCCCCCCCCCCCCCCCN1C(=CC=CC=CC=CC2=[N+](CCCCCCCCCCCCCCCCCC)c3ccccc3C2(C)C)C(C)(C)c2ccccc21.[I-] [free hydrophobic DiR, 1,1′-Dioctadecyl-3,3,3′,3′-tetramethylindotricarbocyanine iodide] | – | – | – | – | – | – | – | – | – | accumulated in liver from 1 h to 24 h with negligible tumor accumulation

— US9975983B2, “Bio-reducible self-assembled liquid crystalline block copolymer for drug delivery” (UNIVERSITY OF CONNECTICUT, priority 2014, dated 2018)
